Measured values taken from patent US7642085B2, “Protein arrays” (priority 2002, dated 2010).
In brackets after ≈: the same amount, converted by molar mass. Where two headings read alike, the source gives them in different places.

Experiments:
[1] = test system: mutant Z domain protein expressed by mutRNACUA^Tyr/LW1RS; assay: fidelity of unnatural amino acid incorporation into Z domain (Lys7TAG), by FT-ICR MS; parameters: species or system E. coli; details: from a signal-to-noise ratio of more than 1500 in the intact protein mass spectrum
Description: Plasmid pLEIZ was used to express the Z-domain gene with an amber codon at the 7th position and a COOH-terminal His6 tag under the control of a bacteriophage T5 promoter and t0 terminator, and the mutRNACUA^Tyr gene under the control of the lpp promoter and rrnC terminator. The mutant synthetase gene isolated from clone LW1 (LW1RS) was encoded in plasmid pBK-LW1RS under the control of the constitutive E. coli GlnRS promoter and terminator. E. coli DH10B cells cotransformed with pLEIZ and pBK-LW1RS were grown in minimal media containing 1% glycerol and 0.3 mM leucine (GMML media) with 25 μg/mL kanamycin, 34 μg/mL of chloramphenicol, and 1.0 mM p-acetyl-(±)-phenylalanine. When cells reach an OD600 of 0.5, isopropyl-β-D-thiogalactopyranoside (IPTG) (1 mM) was added to induce polypeptide expression. […] The yield of polypeptide was measured by Bradford assay (BCA kit, Biorad, Hercules, Calif.). […]
To test the ability of the evolved synthetase and the mutRNACUA^Tyr to selectively incorporate p-acetyl-L-phenylalanine into polypeptides, an amber stop codon was substituted at a permissive site (Lys7) in the gene for the Z domain of staphylococcal protein A (32) with a COOH-terminal His6 tag. Z domain has a molecular weight of about 7.9 kD, so its mass can be measured with very high accuracy using ion cyclotron resonance mass spectrometry. […]

E. coli DH10B cells = assay: growth rate of cells grown in the presence of the unnatural amino acid; details: 1 mM; cells transformed with mutRNACUA^Tyr, LW1RS and Z domain gene (Lys7TAG)
Description: E. coli DH10B cells cotransformed with pLEIZ and pBK-LW1RS were grown in minimal media containing 1% glycerol and 0.3 mM leucine (GMML media) with 25 μg/mL kanamycin, 34 μg/mL of chloramphenicol, and 1.0 mM p-acetyl-(±)-phenylalanine. When cells reach an OD600 of 0.5, isopropyl-β-D-thiogalactopyranoside (IPTG) (1 mM) was added to induce polypeptide expression.
To test the ability of the evolved synthetase and the mutRNACUA^Tyr to selectively incorporate p-acetyl-L-phenylalanine into polypeptides, an amber stop codon was substituted at a permissive site (Lys7) in the gene for the Z domain of staphylococcal protein A (32) with a COOH-terminal His6 tag. […] Cells transformed with the mutRNACUA^Tyr, LW1RS and Z domain gene (Lys7TAG) were grown in the presence of 1 mM p-acetyl-(±)-phenylalanine.

[2] = test system: E. coli cells expressing mutant TyrRS and mutRNACUA^Tyr; assay: in vivo CAT assay: chloramphenicol resistance of cells expressing selected mutant TyrRS and mutRNACUA^Tyr (Asp112TAG CAT gene); format: cell-based, Escherichia coli; details: for IC50: Escherichia coli, read-out: IC50 value of chloramphenicol, eleven mutant TyrRS
Description: In the positive selection, plasmid pYC-J17 was used to express the mutRNACUA^Tyr gene and the chloramphenicol acetyl transferase (CAT) gene with a TAG stop codon at Asp112 (4). Supercoiled DNA encoding the TyrRS library was transformed into E. coli DH10B competent cells containing pYC-J17. Cells were then plated on minimal media plates containing 1% glycerol and 0.3 mM leucine (GMML) with 17 μg/mL tetracycline, 25 μg/mL kanamycin, 60 μg/mL of chloramphenicol, and 1 mM p-acetyl-L-phenylalanine. After incubation at 37° C. for 40 hours, colonies were pooled, and plasmids were isolated. Plasmids encoding mutant synthetases (pBK plasmids) were separated from pYC-J17 using gel electrophoresis and transformed into E. coli DH10B competent cells containing pLWJ17B3 for negative selection. […] Transformed cells were grown on LB (Luria-Bertani) plates containing 0.2% arabinose, 50 μg/ml kanamycin, and 35 μg/ml chloramphenicol. After 8 hours, cells were removed from the plate, and pBK plasmids were purified for further rounds of selection. In the second and third round of positive selection, the concentration of chloramphenicol was increased to 80 and 100 μg/mL, respectively. […] The polypeptide sequences of these mutant TyrRS converged on 3 independent clones LW1, LW5 and LW6, although the codon usage of each mutant TyrRS differs.
The Methanococcus jannaschii tyrosyl-tRNA synthetase (TyrRS) and a mutant tyrosine amber suppressor tRNA (mutRNACUA^Tyr) were used as the starting point for the generation of the orthogonal tRNA-synthetase pairs. […] To change the amino acid specificity of the TyrRS so that it charges p-acetyl-L-phenylalanine and not any of the common 20 amino acids, a library of M. jannaschii TyrRS mutants was generated and screened. The crystal structure of the homologous Bacillus stearothertnophilus TyrRS (31) was used to identify those residues that are within 6.5 Å of the para position of the aryl ring of bound tyrosine. Five corresponding residues (Tyr32, Glu107, Asp158, Ile159 and Leu162) in the active site of M. jannaschii TyrRS were randomly mutated by polymerase chain reaction (PCR) to generate a library 1.6×10^9 in size (4). This TyrRS mutant library was first passed through a positive selection in the presence of 1 mM p-acetyl-L-phenylalanine which is based on the suppression of an amber stop codon at nonessential residue (Asp 112) in chloramphenicol acetyl transferase (CAT) gene encoded on plasmid pYC-J17 (4) in E. coli. Cells surviving in chloramphenicol must encode a mutant synthetase that aminoacylates the mutRNACUA^Tyr with either a common amino acid(s) or p-acetyl-L-phenylalanine. […]

[3] = test system: cells harboring mutant TyrRS plasmids; assay: chloramphenicol resistance of cells harboring mutant TyrRS plasmids selected for m-acetyl phenylalanine; format: cell-based
Excerpt: Preparation of Mutant TyrRS Library Plasmids. A library of plasmids encoding mutant M. jannaschii TryRSs directed at meta-substituted tyrosine derivatives was constructed, generally following the methods described in Example 1 of WO 2002/085923. Briefly, six residues (Tyr^32, Ala^67, His^70, Gln^155, Asp^158, Ala^167) in the active site of M. jannaschii TyrRS that are within 6.9 Å of the meta-position of the aryl ring of bound tyrosine in the crystal structure of Bacillus stearothermophilus TyrRS were mutated to all 20 amino acids at DNA level using the NNK codon scheme as described in Example 1 above. The constructed plasmid library pBK-lib contained around 1×10^9 independent clones.
Evolution of Orthogonal tRNA-synthetase Pairs for Incorporation of m-acetyl Phenylalanine. After 3 rounds of positive selection and 2 rounds of negative selection, five candidate clones (SEQ ID NO: 17-21 of WO 2002/085923) emerged whose survival in chloramphenicol was dependent on the addition of the unnatural amino acid. In the absence of m-acetyl phenylalanine, the IC50 of chloramphenicol resistance for cells harboring the one of the […] mutant TyrRS plasmids is 20 μg/ml. In the presence of m-acetyl phenylalanine, the IC50 of resistance to chloramphenicol for the same cells is 100 μg/ml. […]

Compound: CC(=O)c1ccc(C[C@H](N)C(=O)O)cc1 [p-acetyl-L-phenylalanine]
- fidelity for the incorporation [1]: > 99.8%

Compound: CC(=O)c1ccc(CC(N)C(=O)O)cc1 (racemic) [p-acetyl-(±)-phenylalanine]
- effect on growth rate of cells (E. coli DH10B cells): did not affect the growth rate of cells

Compound: O=C(N[C@H](CO)[C@H](O)c1ccc([N+](=O)[O-])cc1)C(Cl)Cl [chloramphenicol]
- IC50 ([2]; in the absence of p-acetyl-L-phenylalanine): 9 µg/mL (≈ 27.9 µM)
- IC50 ([2]; in the presence of p-acetyl-L-phenylalanine): 120 µg/mL
- chloramphenicol concentration on which cells survived ([2]; GMML plates, in the absence of p-acetyl-L-phenylalanine): 9 µg/mL
- chloramphenicol concentration in which cells survived ([2]; GMML plates, in the presence of p-acetyl-L-phenylalanine): 120 µg/mL
- IC50 ([3]; in the presence of m-acetyl phenylalanine, read-out: IC50 of resistance to chloramphenicol): 100 µg/mL
- IC50 ([3]; read-out: IC50 of chloramphenicol resistance): 20 µg/mL (≈ 61.9 µM)
